The source made the active and inactive calls. No cut-off for these calls is given here.

The subject of data set [1] is Salmonella enterica. The experiment in a line: Antibacterial activity against Salmonella enterica 8389 assessed as inhibition of visible growth incubated for 16 to 18 hrs by CLSI method. It is filed as functional. The note with it: time 16-18 hrs, read-out: MIC100.
The nature of data set [2]: Selectivity index, HC50 for hemolytic activity in sheep RBC to MIC for antibacterial activity against Staphylococcus aureus ATCC29213. It is filed as toxicity. Conditions: sheep red blood cells (erythrocytes), read-out: Selectivity Index.
The subject of data set [3] is Staphylococcus aureus. Briefly: Antibacterial activity against methicillin-resistant Staphylococcus aureus clinical isolate M-14 assessed as inhibition of visible growth incubated for 16 to 18 hrs by CLSI method. It is filed as functional. Conditions: time 16-18 hrs, read-out: MIC100.
Data set [4] relates to Staphylococcus aureus. Briefly: Antibacterial activity against methicillin-resistant Staphylococcus aureus clinical isolate M-15 assessed as inhibition of visible growth incubated for 16 to 18 hrs by CLSI method. The note with it: time 16-18 hrs, read-out: MIC100. The class given is functional.
Data set [5] relates to Staphylococcus aureus. The experiment in a line: Bactericidal activity against methicillin-resistant Staphylococcus aureus clinical isolate 16 assessed as reduction in colony formation in late stage at 8 times of MIC measured within 2 hrs by time-kill assay. It is filed as functional, organism-based.
The test system of data set [6] is Staphylococcus aureus. The experiment in a line: Antibiofilm activity against Staphylococcus aureus assessed as reduction in colony forming unit at 64 ug/ml incubated for 16 to 18 hrs by biofilm disruption assay. It is filed as functional. The note with it: dose 64 µg/ml; time 16-18 hrs.
For data set [7], the system named is Cell membrane. Briefly: Induction of membrane disruption in methicillin-resistant Staphylococcus aureus clinical isolate 16 assessed as increase in red fluorescence at 10 ug/ml by PI staining based confocal laser scanning microscopy. Conditions: dose 10.0 µg/ml.
In data set [8] the test system is Cell membrane. The experiment in a line: Induction of membrane morphological changes in methicillin-resistant Staphylococcus aureus clinical isolate 16 assessed as visible cell surface wrinkles and disruption at 10 ug/ml by scanning electron microscopy. It is filed as subcellular. Conditions: dose 10.0 µg/ml.
The test system of data set [9] is L02. Briefly: Cytotoxicity against human LO2 cells assessed as cell morphology at 128 ug/ml incubated for 24 hrs by live/dead staining based fluorescence microscopy. The note with it: l02, 24 h, dose 128 µg/ml.
The test system of data set [10] is Staphylococcus aureus. The experiment in a line: Antibacterial activity against methicillin-resistant Staphylococcus aureus clinical isolate 16 infected in BALB/c mouse assessed as reduction in inflammatory cell inflammation in kidney at 25 mg/kg, sc once a day for 3 days by H and E staining based assay. The class given is functional, organism-based. Conditions: time 3.0 day.

Data set [11] concerns Staphylococcus aureus. The experiment in a line: Antibacterial activity against methicillin-resistant Staphylococcus aureus clinical isolate 16 infected in BALB/c mouse assessed as reduction in bacterial load in spleen at 25 mg/kg, sc once a day for 3 days by H and E staining based assay. It is filed as functional, organism-based. Conditions: time 3.0 day.

Consider `C=CCc1ccc(OCCC[N+](C)(C)CC(=O)NCCCC)c(-c2ccc(OCCC[N+](C)(C)CC(=O)NCCCC)c(CC=C)c2)c1.[Br-].[Br-]`, for which the MIC worked out at 4 µg/mL in data set [1], 1 µg/mL in [3] and 0.5 µg/mL in data set [4]. The selectivity ratio in data set [2] stood at 789. The outcome in data set [5], in data set [7], in [8], in data set [10] and in data set [11] was Active. Moreover, the Activity in [6] is 3.8 log10CFU/ml; in data set [9] it was “Non-Toxic”.

The values are drawn from ChEMBL document CHEMBL4831516, “Development of Membrane-Active Honokiol/Magnolol Amphiphiles as Potent Antibacterial Agents against Methicillin-Resistant Staphylococcus aureus (MRSA)” (J Med Chem, 2021).
